The source made the active and inactive calls. The rule behind the calls is not given here.
How the values were obtained:
Rattus norvegicus [1] = assay: Hypoglycemic activity in 48 hrs fasted Charles River rat at 150 mg/kg, po measured at 1 hr relative to control; type: functional
Rattus norvegicus [2] = assay: Hypoglycemic activity in 48 hrs fasted Charles River rat at 150 mg/kg, po measured at 2 hrs relative to control; type: functional
Rattus norvegicus [3] = assay: Hypoglycemic activity in 48 hrs fasted Charles River rat at 150 mg/kg, po measured at 4 hrs relative to control; type: functional
Rattus norvegicus [4] = assay: Hypoglycemic activity in 48 hrs fasted Charles River rat at 150 mg/kg, po measured at 5 hrs relative to control; type: functional
Rattus norvegicus [5] = species on record: Rattus norvegicus; assay: Toxicity in rat assessed as mortality measured at 6 hrs; type: organism-based; details: in vivo
Rattus norvegicus [6] = species on record: Rattus norvegicus; assay: Toxicity in rat assessed as mortality measured up to 24 hrs; type: organism-based; details: in vivo
Rattus norvegicus [7] = species on record: Rattus norvegicus; assay: Toxicity in rat assessed as increase in hepatic triglyceride level measured up to 24 hrs; type: organism-based; details: in vivo
Rattus norvegicus [8] = assay: Hypoglycemic activity in 48 hrs fasted Charles River rat at 150 mg/kg, po measured at 7 hrs relative to control; type: functional, organism-based; parameters: dose 150 mg/kg
Rattus norvegicus [9] = assay: Hypoglycemic activity in 48 hrs fasted Charles River rat at 200 mg/kg, po measured at 1 hr relative to control; type: functional
Rattus norvegicus [10] = assay: Hypoglycemic activity in 48 hrs fasted Charles River rat at 200 mg/kg, po measured at 2 hrs relative to control; type: functional
Rattus norvegicus [11] = assay: Hypoglycemic activity in 48 hrs fasted Charles River rat at 200 mg/kg, po measured at 4 hrs relative to control; type: functional
Rattus norvegicus [12] = assay: Hypoglycemic activity in 48 hrs fasted Charles River rat at 260 mg/kg, po measured at 1 hr relative to control; type: functional
Rattus norvegicus [13] = assay: Hypoglycemic activity in 48 hrs fasted Charles River rat at 260 mg/kg, po measured at 2 hrs relative to control; type: functional
Rattus norvegicus [14] = assay: Hypoglycemic activity in 48 hrs fasted Charles River rat at 260 mg/kg, po measured at 4 hrs relative to control; type: functional
Rattus norvegicus [15] = assay: Hypoglycemic activity in 48 hrs fasted Charles River rat at 300 mg/kg, po measured at 1 hr relative to control; type: functional
Rattus norvegicus [16] = assay: Hypoglycemic activity in 48 hrs fasted Charles River rat at 300 mg/kg, po measured at 2 hrs relative to control; type: functional
Rattus norvegicus [17] = assay: Hypoglycemic activity in 48 hrs fasted Charles River rat at 300 mg/kg, po measured at 4 hrs relative to control; type: functional
Rattus norvegicus [18] = assay: Hypoglycemic activity in 48 hrs fasted Charles River rat at 50 mg/kg measured at 7 hrs relative to control; type: functional, organism-based; parameters: dose 50 mg/kg
Rattus norvegicus [19] = assay: Toxicity in rat assessed as increase in hepatic triglyceride level at 50 mg/kg measured after 4 hrs relative to control; type: organism-based; parameters: dose 50 mg/kg; details: in vivo
Rattus norvegicus [20] = assay: Hypoglycemic activity in 48 hrs fasted Charles River rat at 300 mg/kg, ip measured at 1 hr relative to control; type: functional; details: route intraperitoneal
Rattus norvegicus [21] = assay: Hypoglycemic activity in 48 hrs fasted Charles River rat at 300 mg/kg, ip measured at 2 hrs relative to control; type: functional; details: route intraperitoneal
Rattus norvegicus [22] = assay: Hypoglycemic activity in 48 hrs fasted Charles River rat at 300 mg/kg, ip measured at 4 hrs relative to control; type: functional; details: route intraperitoneal

SMILES	Activity (Rattus norvegicus [1])	Activity (Rattus norvegicus [2])	Activity (Rattus norvegicus [3])	further results
Cc1cccnc1CCC(=O)O	5%	-28%	-85%	Activity (Rattus norvegicus [4]): -90%; Activity (Rattus norvegicus [5]): Toxic; Activity (Rattus norvegicus [6]): Toxic; Activity (Rattus norvegicus [7]): Toxic
CC(=O)Cc1ncccc1C	-12%	-14%	-8%	–
OCc1ccccn1 [PICONOL]	4%	6%	2%	–
C[n+]1cccc(CCCO)c1.[I-]	-13%	-14%	-12%	–
Cc1cccnc1CCO	-8%	-14%	8%	–
OCCCc1cccnc1	3%	-12%	-24%	Activity (Rattus norvegicus [8]): Active
Cc1ncccc1CO.Cl	-3%	1%	-11%	–
Cc1cccnc1CCCS	-9%	-14%	-18%	–
CCCCNC(=O)NS(=O)(=O)c1ccc(C)cc1 [TOLBUTAMIDE]	–	–	–	Activity (Rattus norvegicus [9]): 28%; Activity (Rattus norvegicus [10]): 47%; Activity (Rattus norvegicus [11]): 48%
Cc1ccc(CCCO)nc1.[O-][Cl+3]([O-])([O-])O	–	–	–	Activity (Rattus norvegicus [12]): 0%; Activity (Rattus norvegicus [13]): -1%; Activity (Rattus norvegicus [14]): 18%
Cc1cccnc1/C=C/C(=O)O	-5%	4%	23%	–
Cc1cccnc1CC(C)O.Cl (centres undefined)	3%	-3%	-12%	–
OCc1cccnc1 [NICOTINYL ALCOHOL]	11%	-3%	-19%	–
Cc1cnc(CCCO)c(C)c1.Cl	27%	-39%	-72%	Activity (Rattus norvegicus [6]): Toxic; Activity (Rattus norvegicus [7]): Toxic
OCCCc1ccccn1	–	9%	46%	Activity (Rattus norvegicus [4]): 42%
Cc1ncccc1CCCO.[O-][Cl+3]([O-])([O-])O	-4%	-8%	-1%	–
Cc1cccnc1C.Cl	0%	-5%	8%	–

SMILES	Activity (Rattus norvegicus [1])	Activity (Rattus norvegicus [2])	Activity (Rattus norvegicus [3])	further results
OC(Cc1ccccn1)C(Cl)(Cl)Cl (centres undefined)	–	–	–	Activity (Rattus norvegicus [15]): 24%; Activity (Rattus norvegicus [16]): 40%; Activity (Rattus norvegicus [17]): 101%
Cc1cccnc1CC(O)C(=O)O.Cl (centres undefined)	-9%	-5%	-1%	–
CC(=O)OCCCc1ncccc1C	21%	-34%	-73%	Activity (Rattus norvegicus [6]): Toxic; Activity (Rattus norvegicus [7]): Toxic
COCCCc1ncccc1C	-15%	-14%	-29%	Activity (Rattus norvegicus [4]): -52%; Activity (Rattus norvegicus [6]): Toxic; Activity (Rattus norvegicus [7]): Toxic
Cc1cccnc1CO.Cl	-9%	0%	3%	–
Cc1cccnc1CCCCO	-9%	-9%	0%	–
Cc1cccnc1CCC(C)(C)O.[O-][Cl+3]([O-])([O-])O	6%	-7%	-10%	–
Cc1cc2ccccc2nc1CCCO.Cl	16%	-9%	-10%	–
Cc1cccnc1CCCO	-22%	-18%	-68%	Activity (Rattus norvegicus [4]): -87%; Activity (Rattus norvegicus [18]): Active; fold change (FC) (Rattus norvegicus [19]): 10; Activity (Rattus norvegicus [6]): Toxic
Cc1cccnc1CC(O)C(Cl)(Cl)Cl.Cl (centres undefined)	-16%	-29%	-16%	–
OCc1ccncc1 [PYRIDINE 4-METHANOL]	4%	0%	-4%	–
CC1CCCNC1CCCO.Cl (centres undefined)	-15%	-3%	-6%	–
OCCCc1ccncc1	17%	14%	33%	–
Cc1ccc[n+]([O-])c1CCCO	-6%	-3%	-8%	–
Cc1cnc(CO)c(C)c1.Cl	-12%	-17%	-1%	Activity (Rattus norvegicus [4]): -9%
Cc1cccnc1C(=O)O	–	–	–	Activity (Rattus norvegicus [20]): -8%; Activity (Rattus norvegicus [21]): -9%; Activity (Rattus norvegicus [22]): -15%
Cc1ccc[n+](C)c1CCCO.[I-]	-1%	3%	-14%	–

Source: ChEMBL document CHEMBL3227927, “Synthesis and hypoglycemic activity of pyridyl alcohols” (J Med Chem, 1979)
